In PMC7377239, “Cardiovascular Effects of Polychlorinated Biphenyls and Their Major Metabolites” (Environmental Health Perspectives, 2020):
Where two headings read alike, the source gives them in different places.

Experiments:
HUVECs [1] = test: Tube formation (tubulogenesis) assay in HUVECs, 18 h; type: cell-based, human; conditions: Homo sapiens, HUVEC, 18 h, HUVEC; for activity at 0.01 µM: concentration 0.01 µM; for activity at 0.1 µM: concentration 0.10 µM; for activity at 1 µM: concentration 1.00 µM; for activity at 10 µM: concentration 10.00 µM; for activity at 100 µM: concentration 100.00 µM
Outline: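 HUVECs (passage 1–5) seeded on reduced-growth-factor basement membrane and exposed to compounds overnight at 37°C, 5% CO2, in 2× maintenance medium with 12.5 ng/mL VEGF; 0.5% DMSO vehicle. Calcein AM-stained tube networks imaged and analysed; vehicle-normalized readouts fit to four-parameter logistic, POD set at one SD of vehicle means.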

HUVECs [2] = test: High-content imaging cytotoxicity in HUVECs, 24 h; type: cell-based, human; conditions: Homo sapiens, HUVEC, 24 h, HUVEC; for viability at 0.01 µM / activity at 0.01 µM: concentration 0.01 µM; for viability at 0.01 µM / activity at 0.01 µM / viability at 0.1 µM / activity at 0.1 µM / viability at 1 µM / activity at 1 µM / viability at 10 µM / activity at 10 µM / viability at 100 µM / activity at 100 µM: 0.00 µM = 100.00; for viability at 0.1 µM / activity at 0.1 µM: concentration 0.10 µM; for viability at 1 µM / activity at 1 µM: concentration 1.00 µM; for viability at 10 µM / activity at 10 µM: concentration 10.00 µM; for viability at 100 µM / activity at 100 µM: concentration 100.00 µM
Outline: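 Point-of-departure values derive from four-parameter logistic fits of vehicle-normalized imaging phenotypes (Hoechst 33342, MitoTracker Orange, calcein AM). The fits follow 24 h exposure of HUVEC monolayers at 37°C and 5% CO2, with a top tested concentration of 100μM.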

[3] = tube formation mtl, read-out: POD huvec.mtl.18hr
[4] = tube formation tlps, read-out: POD huvec.tlps.18hr
[5] = tube formation tta, read-out: POD huvec.tta.18hr
[6] = tube formation ttl, read-out: POD huvec.ttl.18hr
[7] = cyto, 24 hr, read-out: POD huvec.cyto.24hr
[8] = mito, 24 hr, read-out: POD huvec.mito.24hr
[9] = mitoint, 24 hr, read-out: POD huvec.mitoint.24hr
[10] = nma, 24 hr, read-out: POD huvec.nma.24hr
[11] = tc, 24 hr, read-out: POD huvec.tc.24hr
[12] = HUVECs tube formation, 0.00 µM = 100.00, read-out: huvec.mtl.18hr
[13] = HUVECs tube formation, 0.00 µM = 100.00, read-out: huvec.tlps.18hr
[14] = HUVECs tube formation, 0.00 µM = 100.00, read-out: huvec.tta.18hr
[15] = HUVECs tube formation, 0.00 µM = 100.00, read-out: huvec.ttl.18hr
[16] = HUVECs, 24 hr, read-out: huvec.cyto.24hr
[17] = HUVECs, 24 hr, read-out: huvec.mito.24hr
[18] = HUVECs, 24 hr, read-out: huvec.mitoint.24hr
[19] = HUVECs, 24 hr, read-out: huvec.nma.24hr
[20] = HUVECs, 24 hrs, read-out: huvec.tc.24hrs

Structure (SMILES): Oc1cccc(-c2ccc(Cl)cc2)c1 [3'-OH-PCB 3]
- minimal effective concentration (HUVECs [1]; [3]): 1.14 µM
- minimal effective concentration (HUVECs [1]; [4]): 1.01 µM
- minimal effective concentration (HUVECs [1]; [5]): 3.65 µM
- minimal effective concentration (HUVECs [1]; [6]): 3.26 µM
- minimal effective concentration (HUVECs [2]; [7]): 1.1 µM
- minimal effective concentration (HUVECs [2]; [8]): 0.97 µM
- minimal effective concentration (HUVECs [2]; [9]): 41.4 µM
- minimal effective concentration (HUVECs [2]; [10]): 0.04 µM
- minimal effective concentration (HUVECs [2]; [11]): 1.1 µM

Structure (SMILES): Clc1cc(Cl)c(-c2cc(Cl)c(Cl)cc2Cl)cc1Cl [PCB 153, 2,2′,4,4′,5,5′-hexachlorobiphenyl]
- minimal effective concentration (HUVECs [1]; [3]): 19.8 µM
- minimal effective concentration (HUVECs [1]; [4]): 61.8 µM
- minimal effective concentration (HUVECs [1]; [5]): 8.87 µM
- minimal effective concentration (HUVECs [1]; [6]): 0.13 µM
- minimal effective concentration (HUVECs [2]; [7]): 0.0171 µM
- minimal effective concentration (HUVECs [2]; [8]): 0.75 µM
- minimal effective concentration (HUVECs [2]; [9]): 0.83 µM
- minimal effective concentration (HUVECs [2]; [10]): 1.01 µM
- minimal effective concentration (HUVECs [2]; [11]): 0.0171 µM

Structure (SMILES): COc1cc(Cl)c(-c2cc(Cl)ccc2Cl)cc1Cl [4-OMe PCB52]
- minimal effective concentration (HUVECs [1]; HUVECs tube formation, MAX 100.00, read-out: huvec.mtl.18hr POD): 17.1 µM
- minimal effective concentration (HUVECs [1]; HUVECs tube formation, MAX 100.00, read-out: huvec.tlps.18hr POD): 14.2 µM
- minimal effective concentration (HUVECs [1]; HUVECs tube formation, MAX 100.00, read-out: huvec.tta.18hr POD): 100 µM
- minimal effective concentration (HUVECs [1]; HUVECs tube formation, MAX 100.00, read-out: huvec.ttl.18hr POD): 100 µM
- activity at 0.01 µM (HUVECs [1]; [12]): 105%
- activity at 0.01 µM (HUVECs [1]; [13]): 93.8%
- activity at 0.01 µM (HUVECs [1]; [14]): 98.5%
- activity at 0.01 µM (HUVECs [1]; [15]): 87.4%
- activity at 0.1 µM (HUVECs [1]; [12]): 95.6%
- activity at 0.1 µM (HUVECs [1]; [13]): 86.8%
- activity at 0.1 µM (HUVECs [1]; [14]): 80.4%
- activity at 0.1 µM (HUVECs [1]; [15]): 70.5%
- activity at 1 µM (HUVECs [1]; [12]): 109%
- activity at 1 µM (HUVECs [1]; [13]): 140%
- activity at 1 µM (HUVECs [1]; [14]): 102%
- activity at 1 µM (HUVECs [1]; [15]): 93.9%
- activity at 10 µM (HUVECs [1]; [12]): 94.7%
- activity at 10 µM (HUVECs [1]; [13]): 81.4%
- activity at 10 µM (HUVECs [1]; [14]): 92.9%
- activity at 10 µM (HUVECs [1]; [15]): 84.8%
- activity at 100 µM (HUVECs [1]; [12]): 59.2%
- activity at 100 µM (HUVECs [1]; [13]): 42.6%
- activity at 100 µM (HUVECs [1]; [14]): 75.1%
- activity at 100 µM (HUVECs [1]; [15]): 67.4%
- viability at 0.01 µM (HUVECs [2]; [16]): 105%
- activity at 0.01 µM (HUVECs [2]; [17]): 105%
- activity at 0.01 µM (HUVECs [2]; [18]): 107%
- activity at 0.01 µM (HUVECs [2]; [19]): 98.6%
- viability at 0.1 µM (HUVECs [2]; [16]): 102%
- activity at 0.1 µM (HUVECs [2]; [17]): 102%
- activity at 0.1 µM (HUVECs [2]; [18]): 114%
- activity at 0.1 µM (HUVECs [2]; [19]): 99.1%
- viability at 1 µM (HUVECs [2]; [16]): 85.9%
- activity at 1 µM (HUVECs [2]; [17]): 85.8%
- activity at 1 µM (HUVECs [2]; [18]): 113%
- activity at 1 µM (HUVECs [2]; [19]): 104%
- viability at 10 µM (HUVECs [2]; [16]): 57.8%
- activity at 10 µM (HUVECs [2]; [17]): 31.1%
- activity at 10 µM (HUVECs [2]; [18]): 11.1%
- activity at 10 µM (HUVECs [2]; [19]): 54.2%
- viability at 100 µM (HUVECs [2]; [16]): 60%
- activity at 100 µM (HUVECs [2]; [17]): 23%
- activity at 100 µM (HUVECs [2]; [18]): 13.4%
- activity at 100 µM (HUVECs [2]; [19]): 63.6%
- minimal effective concentration (HUVECs [2]; HUVECs, 24 hr, MAX 100.00, read-out: huvec.cyto.24hr POD): 0.78 µM
- minimal effective concentration (HUVECs [2]; HUVECs, 24 hr, MAX 100.00, read-out: huvec.mito.24hr POD): 0.55 µM
- minimal effective concentration (HUVECs [2]; HUVECs, 24 hr, MAX 100.00, read-out: huvec.mitoint.24hr POD): 2.69 µM
- minimal effective concentration (HUVECs [2]; HUVECs, 24 hr, MAX 100.00, read-out: huvec.nma.24hr POD): 2.36 µM
- viability at 0.01 µM (HUVECs [2]; [20]): 105%
- viability at 0.1 µM (HUVECs [2]; [20]): 102%
- viability at 1 µM (HUVECs [2]; [20]): 85.9%
- viability at 10 µM (HUVECs [2]; [20]): 57.9%
- viability at 100 µM (HUVECs [2]; [20]): 60%
- minimal effective concentration (HUVECs [2]; HUVECs, 24 hrs, MAX 100.00, read-out: huvec.tc.24hrs POD): 0.78 µM

Structure (SMILES): COc1cc(Cl)c(-c2cc(Cl)ccc2Cl)cc1Cl [4-OMe-PCB 52, 4-methoxy-2,2′,5,5′-tetrachlorobiphenyl]
- minimal effective concentration (HUVECs [1]; [3]): 17.1 µM
- minimal effective concentration (HUVECs [1]; [4]): 14.2 µM
- minimal effective concentration (HUVECs [1]; [5]): 100 µM
- minimal effective concentration (HUVECs [1]; [6]): 100 µM
- minimal effective concentration (HUVECs [2]; [7]): 0.78 µM
- minimal effective concentration (HUVECs [2]; [8]): 0.55 µM
- minimal effective concentration (HUVECs [2]; [9]): 2.69 µM
- minimal effective concentration (HUVECs [2]; [10]): 2.36 µM
- minimal effective concentration (HUVECs [2]; [11]): 0.78 µM
